These results are taken from patent publication US20120322124A1, “CONTROL OF CONTAMINANT MICROORGANISMS IN FERMENTATION PROCESSES WITH SYNERGISTIC FORMULATIONS CONTAINING STABILIZED CHLORINE DIOXIDE AND QUATERNARY AMMONIUM COMPOUND” (E. I. DU PONT DE NEMOURS AND COMPANY, priority 2010, published 2012).

Holding throughout (assay type): cell-based
In assay [1] the test system is Lactobacillus brevis. In words: Checkerboard assay of SCD with a quaternary ammonium compound against Lactobacillus brevis. Details: key: no inhibition of growth (NI); partial inhibition (PI); complete inhibition (CI). Particulars: SCD 0 ppm, MRS broth pH 5.5, 28 hours at 32° C. From the text:
In this example, stabilized chlorine dioxide (SCD) and a quaternary ammonium chloride (QAC) mixture were used in a checkerboard assay to determine whether their interaction was synergistic against Lactobacillus brevis. The checkerboard assay method is used to analyze interactions between compounds by mixing them in increasing concentrations to determine whether the compounds act synergistically, additively or antagonistically. (See, M. Najjar, D. Kashtanov, M Chikindas, Letters in Applied Microbiology, vol. 45 (2007) 13-18.) L. brevis was cultured overnight in MRS broth (deMan Rogosa and Sharp broth, Difco Laboratories, Inc., Sparks, M.D.) at 32° C. The culture was then diluted and resuspended in fresh MRS broth adjusted to pH 5.5. The number of bacteria in the resuspended culture was determined using standard plate counts. Samples were diluted (1:10) in sterile phosphate-buffered saline (Sigma-Aldrich Co., St. Louis, Mo.) and plated onto the surface of MRS plates. The resuspended culture […] was then used to fill the wells of a 96 well plate (Becton, Dickinson and Co., Franklin Lakes, N.J.). SCD (FermaSure® fermentation additive, E. I. du Pont de Nemours and Co., Wilmington Del.) and a quaternary ammonium compound (BTC 1010, a solution of didecyl dimethyl ammonium chloride, DDAC, Stepan Company, Northfield, Ill.) were then added at the concentrations shown in the “checkerboard” plate diagram below. The plate was covered and incubated for 28 hours at 32° C. Following incubation, the plate was removed and the optical density of each well was determined using a plate reader at 630 nm (PowerWave, BioTek Instruments Inc., Winooski, Vt.). Based on the optical density, each well was scored to determine whether there was no inhibition of growth (NI), partial inhibition (PI), or complete inhibition (CI).
To determine whether any synergistic activity occurred between SCD and the quaternary ammonium compound, the fractional inhibitory concentration (FIC) was determined using the formula:
FIC=[SCD]/MICSCD+[DDAC]/MICDDAC
where [SCD] and [DDAC] are the concentrations of SCD and BTC 1010 that result in partial inhibition and MICSCD and MICDDAC are the minimum inhibitor concentration of SCD and DDAC, respectively. Synergy between the two antimicrobials is determined when the resulting FIC is <1.0.
In this example, SCD (FermaSure® fermentation additive, E. I. du Pont de Nemours and Co., Wilmington Del.) and a second quaternary ammonium compound (BTC 2125, a mixture of n-alkyl dimethyl benzyl ammonium chlorides and n-alkyl dimethyl ethylbenzyl ammonium chlorides, ADBAC/ADEBAC, Stepan Company, Northfield, Ill.) were used in a checkerboard assay to determine whether their interaction was synergistic against Lactobacillus brevis. L. brevis was cultured as above, resuspended in MRS at pH 5.5, and then added […] the wells of a 96 well plate (Becton Dickinson, Franklin Lakes, N.J.). […] Following incubation, the plate was removed and the optical density of each well was determined using a plate reader at 630 nm. Based on the optical density, each well was scored to determine whether there was no inhibition (NI), partial inhibition (PI), or complete inhibition (CI).
To determine whether any synergistic activity occurred between SCD and the ADBAC/ADEBAC quaternary ammonium compound, the fractional inhibitory concentration (FIC) was determined as above using the formula: […]

Assay [2] has as its system Viable bacteria. Put plainly: Bench-scale successive fermentations with yeast recycle stream from a molasses-based ethanol plant, viable bacteria enumerated. The procedure: In this example, samples of recycle streams comprising primarily inoculant yeast were collected from a molasses-based ethanol plant in Brazil. The samples were used to complete bench-scale fermentations in which the samples were treated with a combination of SCD (FermaSure® fermentation additive, E. I. du Pont de Nemours and Co., Wilmington Del.) with didecyl dimethyl ammonium chloride (BTC 1010, a solution of didecyl dimethyl ammonium chloride, DDAC, same as in Example 1), as quaternary compound. The treated samples were used to carry out successive 8-hour long fermentations, using recovered yeast at the end of each cycle to begin the next run. Viable bacteria were enumerated over 5 fermentation cycles. Results are provided in Table 3 where ND means the combination was not tested.

Assay [3] relates to lactic acid bacteria. In words: Molasses-based recycle stream treated with SCD, QAC or both: viable bacteria. The procedure:
(§1) In this example, a molasses-based fermentation medium was prepared and inoculated with both yeast and lactic acid bacteria. The medium comprised various components as follows:
(§2) Following inoculation, the mixed culture was grown overnight in the molasses medium, after which a recycle stream was prepared by centrifuging the broth at 3000 rpm for 5 minutes. The resulting pellet was separated from the supernatant and reconstituted using sterile deionized water, then adjusted to pH 3.0 using sulfuric acid. 5 ml portions of the reconstituted pellet were then treated as follows: • 1. Untreated • 2. QAC only (60 ppm) • 3. SCD (45 ppm) • 4. SCD/QAC (45 ppm/60 ppm)
(§3) The SCD was FermaSure® fermentation additive, E. I. du Pont de Nemours and Co., Wilmington Del. The quaternary ammonium compound (QAC) was the same DDAC (BTC 1010, Stepan Company, Northfield, Ill.) as used in Example 1.
(§4) Samples were stored in a shaking incubator at 32° C. for 2 hours following which 0.1 ml aliquots were serially diluted and plated on selective media to enumerate surviving yeast and bacteria cells. […] Following this cycle, the SCD and SCD/QAC treated samples were centrifuged as before, and the number of viable yeast and bacterial cells in the resulting pellet was determined.

The test system of assay [4] is yeast. Put plainly: Molasses-based recycle stream treated with SCD, QAC or both: viable yeast. Particulars: QAC only (60 ppm), pH 3.0, 32° C. The procedure: as §1, §2, §3, §4
[5] abbreviates: SCD 0 ppm, DDAC 60 ppm, yeast recycle stream, 8-hour fermentations.

SMILES strings stand for the structures.

In the case of `CCCCCCCCCC[N+](C)(C)CCCCCCCCCC.[Cl-]` [DDAC, didecyl dimethyl ammonium chloride], the “inhibition of growth score based on optical density at 630 nm” value in assay [1] (DDAC 2 ppm) is “PI”; in assay [1] (DDAC 4 ppm) it was “PI”; in assay [1] (DDAC 5 ppm), “PI”; in assay [1] (DDAC 6 ppm) it was “PI”; in assay [1] (DDAC 7 ppm), “CI”. Further, in assay [2] (setting [5]), the “Log Viable Bacteria Cycle 1” value amounted to 7.79. The “Log Viable Bacteria Cycle 2” value in assay [2] (setting [5]) is 7.97. In addition, the “efficacy against viable bacteria, in words” value in assay [2] (treatments of Table 3 (45 ppm SCD and 60 ppm DDAC; 60 ppm DDAC alone), through 5 cycles of fermentation) was “did not result in any significant inactivation of bacteria”. For the same compound, in assay [3] (QAC only (60 ppm), pH 3.0, 32° C., 2 hours), the “Viable Cells (2 hrs) Bacteria” value is on record as 8.1 logCFU per milliliter. Also, in assay [3] (treatments of Table 4 (QAC 60 ppm, SCD 45 ppm, SCD/QAC 45 ppm/60 ppm)), the “number of viable bacteria, in words” value is given as “did not result in any reduction in viable bacterial cells”. Also, in assay [4], the “Viable Cells (2 hrs) Yeast” value was 8.8 logCFU per milliliter.
